Values belong to the compound of their own block, whether it stands above or below them.
Experiments:
[1] = target: Tyrosine-protein kinase Blk (Mus musculus, UniProt P16277); assay: Inhibition of mouse BLK
[2] = target: Tyrosine-protein kinase Fgr (Homo sapiens, UniProt P09769); assay: Inhibition of FGR
[3] = target: Mitogen-activated protein kinase kinase kinase kinase 5 (Homo sapiens, UniProt Q9Y4K4); assay: Inhibition of MAP4K5
[4] = target: Activated CDC42 kinase 1 (Homo sapiens, UniProt Q07912); assay: Inhibition of TNK2
[5] = target: Serine/threonine-protein kinase 24 (Homo sapiens, UniProt Q9Y6E0); assay: Inhibition of STK24
[6] = target: Tyrosine-protein kinase FRK (Homo sapiens, UniProt P42685); assay: Inhibition of FRK
[7] = target: Tyrosine-protein kinase CSK (Homo sapiens, UniProt P41240); assay: Inhibition of CSK
[8] = target: Misshapen-like kinase 1 (Homo sapiens, UniProt Q8N4C8); assay: Inhibition of MINK1
[9] = target: Interleukin-1 receptor-associated kinase 4 (Homo sapiens, UniProt Q9NWZ3); assay: Inhibition of IRAK4
[10] = target: Serine/threonine-protein kinase TBK1 (Homo sapiens, UniProt Q9UHD2); assay: Inhibition of TBK1
[11] = target: Tyrosine-protein kinase TXK (Homo sapiens, UniProt P42681); assay: Inhibition of TXK
[12] = target: Protein-tyrosine kinase 2-beta (Homo sapiens, UniProt Q14289); assay: Inhibition of PTK2B
[13] = target: T1, High affinity nerve growth factor receptor (Homo sapiens, UniProt P04629); assay: Inhibition of TRKA
[14] = target: Tyrosine-protein kinase HCK (Homo sapiens, UniProt P08631); assay: Inhibition of HCK
[15] = target: T2, Angiopoietin-1 receptor (Homo sapiens, UniProt Q02763); assay: Inhibition of TIE2
[16] = target: Tyrosine-protein kinase ABL2 (Homo sapiens, UniProt P42684); assay: Inhibition of ABL2
[17] = target: Tyrosine-protein kinase Tec (Homo sapiens, UniProt P42680); assay: Inhibition of TEC
[18] = target: Calcium/calmodulin-dependent protein kinase type II subunit gamma (Homo sapiens, UniProt Q13555); assay: Inhibition of CAMK2G
[19] = target: Tyrosine-protein kinase BTK (Homo sapiens, UniProt Q06187); assay: Inhibition of BTK
[20] = target: T3, BDNF/NT-3 growth factors receptor (Homo sapiens, UniProt Q16620); assay: Inhibition of TRKB
[21] = target: Mitogen-activated protein kinase kinase kinase kinase 2 (Homo sapiens, UniProt Q12851); assay: Inhibition of MAP4K2
[22] = target: T1, High affinity nerve growth factor receptor; assay: Inhibition of TRKA at 10 uM
[23] = target: T2, Angiopoietin-1 receptor; assay: Inhibition of TIE2 at 10 uM
[24] = target: Interleukin-1 receptor-associated kinase 4 (Homo sapiens) (UniProt Q9NWZ3); assay: Inhibition of IRAK4 at 10 uM
[25] = target: Tyrosine-protein kinase receptor UFO (Homo sapiens) (UniProt P30530); assay: Inhibition of AXL at 10 uM
[26] = target: Tyrosine-protein kinase Fes/Fps (Homo sapiens) (UniProt P07332); assay: Inhibition of FES at 10 uM
[27] = target: T3, BDNF/NT-3 growth factors receptor; assay: Inhibition of TRKB at 10 uM

- IC50 [1]: 7.3 nM
- IC50 [2]: 1.1 nM
- IC50 [3]: 0.3 nM
- IC50 [4]: 2.7 nM
- IC50 [5]: 3.9 nM
- IC50 [6]: 2.2 nM
- IC50 [7]: 63 nM
- IC50 [8]: 22 nM
- IC50 [9]: 574 nM
- IC50 [10]: 471 nM
- IC50 [11]: 40 nM
- IC50 [12]: 134 nM
- IC50 [13]: 22 nM
- IC50 [14]: 3.2 nM
- IC50 [15]: 1190 nM
- IC50 [16]: 0.5 nM
- IC50 [17]: 282 nM
- IC50 [18]: 184 nM
- IC50 [19]: 2.5 nM
- IC50 [20]: 27 nM
- IC50 [21]: 9.9 nM
SMILES: COc1cc(Nc2c(C#N)cnc3cc(OCCCN4CCN(C)CC4)c(OC)cc23)c(Cl)cc1Cl [BOSUTINIB]

- residual activity [22]: 35%
- IC50 [1]: 8 nM
- residual activity [23]: 48%
- residual activity [24]: 84%
- residual activity [25]: 86%
- residual activity [26]: 83%
- residual activity [27]: 52%
SMILES: Cc1nc(Nc2ncc(C(=O)Nc3c(C)cccc3Cl)s2)cc(N2CCN(CCO)CC2)n1 [DASATINIB]
